{"source": "paper PMC9700480", "about": "(Drug Design, Development and Therapy, 2022)", "test_system": "alloxan-induced diabetic mice", "test": "In vivo anti-diabetic activity in alloxan-induced diabetic mice", "design": "species or system albino mice (strain balb/c)"}
{"smiles": "C[C@H]1O[C@H](O[C@H]2[C@H](O)[C@@H](O)[C@@H](O[C@H]3[C@H](O)[C@@H](O)C(O)O[C@@H]3CO)O[C@@H]2CO)[C@H](O)[C@@H](O)[C@@H]1N[C@H]1C=C(CO)[C@@H](O)[C@H](O)[C@H]1O", "note": "(some centres unmarked) [Acarbose]", "values": [{"measurement": "Creatinine content", "setting": "day 21, compared with diabetic control", "result": "significant (p < 0.05) decrease in creatinine content"}, {"measurement": "level of insulin in serum", "setting": "day 21, FA2 at high dose", "result": "25 ± 3.1", "unit": "pmol/L"}]}
